# Assay results reported in patent publication EP0019589A1, “Tripeptide derivatives and their use in a process for determining enzymes” (Pentapharm A.G., priority 1979, dated 1980).
# Non-standard residues stand in square brackets, D forms with d. Residues, ends and D or L forms follow the SMILES beside them. *: point of attachment. Cha = N[C@@H](CC1CCCCC1)C(=O)O; dCha = N[C@H](CC1CCCCC1)C(=O)O; dChg = N[C@@H](C(=O)O)C1CCCCC1; pNA = O=[N+]([O-])c1ccc(N*)cc1; AMC = Cc1cc(=O)oc2cc(N*)ccc12; Phg = N[C@H](C(=O)O)c1ccccc1; Nle = CCCC[C@H](N)C(=O)O; βNA = c1ccc2cc(N*)ccc2c1
# Legend:
# Assay type in all cases: biochemical
# Humanplasmin = target: T1, Humanplasmin (Homo sapiens, UniProt P00747); assay: Cleavage of chromogenic substrate by human plasmin; settings: 1 CU-Einheit human plasmin, per min; Substratkonzentration 2 x 10^-4 molar
# T1 construct: da bei der Aktivierung aus 1 Molekül Plasminogen 1 Molekül Plasmin entsteht
# Procedure: 3. Bestimmung von Plasmin:
# Man mischt 1,7 ml TRIS-Imidazol-Puffer (pH 7,5, Ionenstärke 0,2) bei 37°C mit 0,1 ml einer Lösung von Plasmin in 25%igem Glycerin und inkubiert die Mischung während 1 Min. bei 37°C. Dann gibt man der Mischung 0,2 ml einer wässrigen 2 x 10^-3 molaren Substxatlösung von 37°C zu und durchmischt das Ganze schnell. Man ermittelt dann kontinuierlich die pro Zeiteinheit aus dem Substrat freigesetzte Menge des Spaltproduktes R-NH2. Aus dem pro Min. ermittelten Wert berechnet man dann die Plasminaktivität pro ml Probe in mU nach der folgenden Formel: [formula] • ΔE = pro Min. freigesetzte Menge des Spaltproduktes • V = Totalvolumen des Testansatzes • v = Volumen der Probe • = Extinktionskoeffizient dividiert durch 1000
# (§1) Bei der Messung des durch die enzymatische Hydrolyse des Substrates gebildeten Spaltproduktes RrNH2 geht man von der Voraussetzung aus, dass das Spaltprodukt ein UV-Spektrum besitzt, das von demjenigen des Substrates verschieden und in Richtung höherer Wellenlängen verschoben ist. Die Absorption des Substrates bei 405 nm ist praktisch Null. p-Nitroanilin als Spaltprodukt weist ein Absorptionsmaximum bei 380 nm und einen molaren Extinktionskoeffizienten von 13'200 auf. Bei 405 nm ist der Extinktionskoeffizient nur wenig niedriger, d.h. […] Der Grad der enzymatischen Hydrolyse des Substrates, welcher der Menge des abgespaltenen p-Nitroanilins proportional ist, lässt sich durch spektrophotometrische Messung bei 405 nm bestimmen. Auch bei Anwesenheit eines Ueberschusses an Substrat wird die Messung bei 405 nm nicht gestört.
# (§2) Bei den Substraten, die als chromogene Gruppe eine 2-Naphthylamino-, 4-Methoxy-2-naphthylamino-, 4-Methyl-cumaryl-(7)-amino- oder 1,3-Di(methoxycarbonyl)-phenyl-(5)-amino-Gruppe enthalten, wird die Menge des Spaltproduktes R-NH2 durch Fluoreszenzspektrophotometrie gemessen. In einem aus Enzym, Puffer und Substrat bestehenden Testsystem misst man kontinuierlich das energieärmere emittierte Licht bei 400-470 nm, nachdem man das gebildete fluoreszierende Spaltprodukt mit energiereicherem Licht erregt hat. Die pro Zeiteinheit gebildete Menge Spaltprodukt ist ein Mass für die vorhandene Enzymaktivität. 1 µMol Spaltprodukt pro Minute entspricht definitionsgemäss 1 Enzym-Einheit, bezogen auf ein gegebenes Substrat.
# [1] = target: T2, Submandibularis-Kallikrein (Homo sapiens, UniProt P06870); assay: Cleavage of chromogenic substrate by submandibular (glandular) kallikrein in human sputum; settings: 1 ml human sputum, per min; Substratkonzentration 2 x 10^-4 molar
# T2 construct: Man mischt 0,5 ml Sputum mit 2 ml TRIS-Imidazol-Puffer; from tissue; host or cells: human sputum
# Procedure: 2. Bestimmung des Glandulärkallikreins im Sputum: • Man mischt 0,5 ml Sputum mit 2 ml TRIS-Imidazol-Puffer (Ionenstärke 1,0) und präinkubiert die Mischung 5 Min. bei 37°C. Das Inkubat wird zentrifugiert. In eine Testküvette wird 1,5 ml dest. H2O von 37°C vorgelegt und mit 0,25 ml des Zentrifugats versetzt. Die Komponenten werden gut gemischt. Dann wird 0,2 ml 2 x 10-^3 molare wässrige Substratlösung zugesetzt und gemischt. Dann wird bei 405 nm die Extinktions- änderung kontinuierlich mittels eines Schreibers während 5-10 Min. verfolgt. Aus dem ermittelten Δ OD pro Min. wird mittels der nachstehenden Formel die Kallikreinaktivität pro ml Sputum in mU errechnet: [formula] • F = 5 • V = 1,95 • v = 0,25 • 1 U (Einheit) = Enzymmenge, die während 1 Min. 1 µMol Substrat unter optimalen oder sonst festgelegten Bedingungen in Bezug auf pH, Ionenstärke, Temperatur und Substratkonzentration zu spalten vermag
# as §1, with “gestört. […]” for “gestört.”
# Urinkallikrein = target: T3, Urinkallikrein (Homo sapiens, UniProt P06870); assay: Cleavage of chromogenic substrate by urinary kallikrein in human urine; settings: 1 ml human urine (pooled morning urine of healthy persons), per min; Substratkonzentration 2 x 10^-4 molar
# T3 construct: 1 ml Urin und 1 ml TRIS-Imidazol-Puffer mit pH 7,9; from tissue; host or cells: human urine
# Procedure: 1. Bestimmung von Urinkallikrein.
# 1 ml Urin und 1 ml TRIS-Imidazol-Puffer mit pH 7,9 und Ionenstärke 1,0 werden 5 Min. bei 37°C inkubiert undcänn zentrifugiert, um Sedimente zu entfernen.
# In einer-Plastikküvette werden 1,4 ml dest. H20 von 37°C und 0,4 ml des Zentrifugats gut gemischt. Zu dieser Mischung gibt man 0,2 ml einer 2 x 10^-3 molaren wässrigen Substratlösung und durchmischt die Komponenten schnell. Dieses Gemisch wird genau 15 Min. bei 37°C inkubiert. Dann wird dem Reaktionsgemisch 0,2 ml Eisessig zugemischt, um die Enzymreaktion zu unterbrechen. Zur Farbmessung verwendet man eine Vergleichsprobe (Blindprobe), die aus den gleichen Komponenten zusammengesetzt ist, wobei jedoch der Eisessig vor Zugabe des Substrates zugesetzt wird, um die Enzymreaktion zu verhindern. Dann wird bei 405 nm photometrisch oder spektrophotometrisch die Menge der gebildeten farbigen Verbindung RNH 2 aus der Differenz zwischen der Blindprobe und der zu bestimmenden Probe ermittelt. Aus dem ermittelten Wert wird die Urinkallikreinaktivität im Urin nach der folgenden Formel berechnet: [formula] • Δ OD = Zunahme der optischen Dichte bei 405 nm während 15 Min. • V = Totalvolumen des Bestimmungsansatzes = 2,2 ml • 1000 = Umrechnungsfaktor zur Umwandlung von U in mU • F = Verdünnungsfaktor des Urins (2) • v = Volumen der Probe = 0,4 ml • ε = Extinktionskoeffizient dividiert durch 1000 = 10,4
# Bei der oben beschriebenen Bestimmungsmethode misst man somit die Summe der Aktivitäten von Urinkallikrein und Urokinase. Um die genaue Urinkallikreinaktivität zu erhalten, muss man die Urokinaseaktivität abziehen, welche dadurch bestimmt werden kann, dass man in einem Vergleichsversuch durch Zugabe von 0,075 Einheiten Trypsininhibitor (Trypsininhibitor aus Rinderlunge) pro ml Puffer die Urinkallikreinaktivität vollständig hemmt und nur die Urokinaseaktivität misst.
# as §1, §2
# Humanthrombin = target: T4, Humanthrombin (Homo sapiens, UniProt P00734); assay: Cleavage of chromogenic substrate by human NIH thrombin; settings: 1 NIH-Einheit human thrombin, per min; Substratkonzentration 2 x 10^-4 molar
# T4 construct: Humanplasmin und hu-manem NIH-Thrombin
# Description: as §1, §2
# T1 sequence (P00747 581-810 limits assumed): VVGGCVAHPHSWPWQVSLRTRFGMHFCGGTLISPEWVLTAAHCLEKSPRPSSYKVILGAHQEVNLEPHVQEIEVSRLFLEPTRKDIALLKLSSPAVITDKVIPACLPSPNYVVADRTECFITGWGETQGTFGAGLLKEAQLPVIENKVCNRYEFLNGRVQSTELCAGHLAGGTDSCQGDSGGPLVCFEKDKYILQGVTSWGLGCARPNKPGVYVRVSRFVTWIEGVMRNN
# T1 sequence (P00747 97-580 partner limits assumed): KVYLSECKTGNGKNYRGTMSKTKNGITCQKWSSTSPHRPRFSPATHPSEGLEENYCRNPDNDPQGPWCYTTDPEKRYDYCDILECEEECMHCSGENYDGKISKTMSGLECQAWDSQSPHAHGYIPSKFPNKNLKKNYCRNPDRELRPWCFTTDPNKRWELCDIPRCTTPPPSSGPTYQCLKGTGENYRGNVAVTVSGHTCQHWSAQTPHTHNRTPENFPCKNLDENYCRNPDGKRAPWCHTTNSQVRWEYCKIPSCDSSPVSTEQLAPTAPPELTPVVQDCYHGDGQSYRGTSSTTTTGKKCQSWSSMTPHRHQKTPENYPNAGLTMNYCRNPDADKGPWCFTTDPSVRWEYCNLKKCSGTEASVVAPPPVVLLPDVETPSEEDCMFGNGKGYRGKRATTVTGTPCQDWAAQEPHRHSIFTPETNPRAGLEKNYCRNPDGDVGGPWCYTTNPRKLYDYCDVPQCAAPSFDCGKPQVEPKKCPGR
# T2 sequence (P06870 25-262): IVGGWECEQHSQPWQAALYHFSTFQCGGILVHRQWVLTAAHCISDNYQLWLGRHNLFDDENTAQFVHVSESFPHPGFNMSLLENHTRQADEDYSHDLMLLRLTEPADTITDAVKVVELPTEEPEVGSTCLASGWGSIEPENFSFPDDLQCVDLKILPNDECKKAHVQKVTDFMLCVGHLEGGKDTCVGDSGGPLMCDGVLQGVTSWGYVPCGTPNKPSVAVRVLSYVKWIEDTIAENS
# T3 sequence (P06870 25-262): as above
compound,measurement,setting,value
"CC(C)C[C@@H](N)C(=O)N[C@H](C(=O)N[C@@H](CCCNC(=N)N)C(=O)Nc1ccc([N+](=O)[O-])cc1)c1ccccc1 [Beispiel 53, 2HBr.H-D-Leu-Ph'Gly-Arg-pNA] (H-[dL]-[Phg]-Arg-pNA)",Menge des durch 1 CU-Einheit Humanplasmin pro Min. freigesetzten Spaltproduktes R-NH2 in Nanomol (Humanplasmin),Humanplasmin,422 Nanomol
same,Menge des durch 1 ml Humansputum pro Min. freigesetzten Spaltproduktes R-NH2 in Nanomol (Submandibularis-Kallikrein),[1],"25,8 Nanomol"
same,Menge des durch 1 ml Humanurin pro Min. freigesetzten Spaltproduktes R-NH2 in Nanomol (Urinkallikrein),Urinkallikrein,"0,67 Nanomol"
same,Menge des durch 1 NIH-Einheit Thrombin pro Min. freigesetzten Spaltproduktes R-NH2 in Nanomol (Humanthrombin),Humanthrombin,"27,4 Nanomol"
"CCCC[C@H](NC(=O)[C@H](N)CC1CCCCC1)C(=O)N[C@@H](CCCNC(=N)N)C(=O)Nc1ccc([N+](=O)[O-])cc1 [Beispiel 68, 2HBr.H-D-CHA-Nleu-Arg-pNA] (H-[dCha]-[Nle]-Arg-pNA)",Menge des durch 1 CU-Einheit Humanplasmin pro Min. freigesetzten Spaltproduktes R-NH2 in Nanomol (Humanplasmin),Humanplasmin,899 Nanomol
same,Menge des durch 1 ml Humansputum pro Min. freigesetzten Spaltproduktes R-NH2 in Nanomol (Submandibularis-Kallikrein),[1],"15,0 Nanomol"
same,Menge des durch 1 ml Humanurin pro Min. freigesetzten Spaltproduktes R-NH2 in Nanomol (Urinkallikrein),Urinkallikrein,"0,45 Nanomol"
same,Menge des durch 1 NIH-Einheit Thrombin pro Min. freigesetzten Spaltproduktes R-NH2 in Nanomol (Humanthrombin),Humanthrombin,"77,6 Nanomol"
"Cc1cc(=O)oc2cc(NC(=O)[C@H](CCCCN)NC(=O)[C@H](Cc3ccccc3)NC(=O)[C@H](N)C3CCCCC3)ccc12 [Beispiel 4, 2HBr.H-D-CHG-Phe-Lys-MCA] (H-[dChg]-Phe-Lys-{AMC})",Menge des durch 1 CU-Einheit Humanplasmin pro Min. freigesetzten Spaltproduktes R-NH2 in Nanomol (Humanplasmin),Humanplasmin,1120 Nanomol
same,Menge des durch 1 ml Humansputum pro Min. freigesetzten Spaltproduktes R-NH2 in Nanomol (Submandibularis-Kallikrein),[1],"15,7 Nanomol"
same,Menge des durch 1 ml Humanurin pro Min. freigesetzten Spaltproduktes R-NH2 in Nanomol (Urinkallikrein),Urinkallikrein,"0,60 Nanomol"
"CC(C)[C@@H](N)C(=O)N[C@@H](CC1CCCCC1)C(=O)N[C@@H](CCCNC(=N)N)C(=O)Nc1ccc2ccccc2c1 [Beispiel 7, 2HBr.H-D-Val-CHA-Arg-2-NA] (H-[dV]-[Cha]-Arg-βNA)",Menge des durch 1 CU-Einheit Humanplasmin pro Min. freigesetzten Spaltproduktes R-NH2 in Nanomol (Humanplasmin),Humanplasmin,428 Nanomol
same,Menge des durch 1 ml Humansputum pro Min. freigesetzten Spaltproduktes R-NH2 in Nanomol (Submandibularis-Kallikrein),[1],"31,1 Nanomol"
same,Menge des durch 1 ml Humanurin pro Min. freigesetzten Spaltproduktes R-NH2 in Nanomol (Urinkallikrein),Urinkallikrein,"2,55 Nanomol"
"COc1cc(NC(=O)[C@H](CCCCN)NC(=O)[C@H](Cc2ccccc2)NC(=O)[C@H](N)C2CCCCC2)cc2ccccc12 [Beispiel 10, 2HBr.H-D-CHG-Phe-Lys-4-MeO-2-NA]",Menge des durch 1 CU-Einheit Humanplasmin pro Min. freigesetzten Spaltproduktes R-NH2 in Nanomol (Humanplasmin),Humanplasmin,1165 Nanomol
same,Menge des durch 1 ml Humansputum pro Min. freigesetzten Spaltproduktes R-NH2 in Nanomol (Submandibularis-Kallikrein),[1],"14,9 Nanomol"
same,Menge des durch 1 ml Humanurin pro Min. freigesetzten Spaltproduktes R-NH2 in Nanomol (Urinkallikrein),Urinkallikrein,"0,61 Nanomol"
"NCCCC[C@H](NC(=O)[C@H](Cc1ccccc1)NC(=O)[C@H](N)C1CCCCC1)C(=O)Nc1ccc([N+](=O)[O-])cc1 [Beispiel 2, 2HBr.H-D-CHG-Phe-Lys-pNA] (H-[dChg]-Phe-Lys-pNA)",Menge des durch 1 CU-Einheit Humanplasmin pro Min. freigesetzten Spaltproduktes R-NH2 in Nanomol (Humanplasmin),Humanplasmin,1150 Nanomol
same,Menge des durch 1 ml Humansputum pro Min. freigesetzten Spaltproduktes R-NH2 in Nanomol (Submandibularis-Kallikrein),[1],"25,6 Nanomol"
same,Menge des durch 1 ml Humanurin pro Min. freigesetzten Spaltproduktes R-NH2 in Nanomol (Urinkallikrein),Urinkallikrein,"0,80 Nanomol"
"CC(C)C[C@H](NC(=O)[C@H](N)C(C)C)C(=O)N[C@@H](CCCCN)C(=O)Nc1ccc([N+](=O)[O-])cc1 [B, 2HCl.H-D-Val-Leu-Lys-pNA, reference compound] (H-[dV]-Leu-Lys-pNA)",Menge des durch 1 CU-Einheit Humanplasmin pro Min. freigesetzten Spaltproduktes R-NH2 in Nanomol (Humanplasmin),Humanplasmin,347 Nanomol
same,Menge des durch 1 ml Humansputum pro Min. freigesetzten Spaltproduktes R-NH2 in Nanomol (Submandibularis-Kallikrein),[1],"5,7 Nanomol"
same,Menge des durch 1 ml Humanurin pro Min. freigesetzten Spaltproduktes R-NH2 in Nanomol (Urinkallikrein),Urinkallikrein,"0,30 Nanomol"
"COC(=O)c1cc(NC(=O)[C@H](CCCCN)NC(=O)[C@H](Cc2ccccc2)NC(=O)[C@H](N)C2CCCCC2)cc(C(=O)OC)c1 [Beispiel 6, 2HBr.H-D-CHG-Phe-Lys-DPA]",Menge des durch 1 CU-Einheit Humanplasmin pro Min. freigesetzten Spaltproduktes R-NH2 in Nanomol (Humanplasmin),Humanplasmin,1215 Nanomol
same,Menge des durch 1 ml Humansputum pro Min. freigesetzten Spaltproduktes R-NH2 in Nanomol (Submandibularis-Kallikrein),[1],"24,8 Nanomol"
same,Menge des durch 1 ml Humanurin pro Min. freigesetzten Spaltproduktes R-NH2 in Nanomol (Urinkallikrein),Urinkallikrein,"0,72 Nanomol"
"COC(=O)c1cc(NC(=O)[C@H](CCCNC(=N)N)NC(=O)[C@H](CC2CCCCC2)NC(=O)[C@H](N)C(C)C)cc(C(=O)OC)c1 [Beispiel 5, 2HBr.H-D-Val-CHA-Arg-DPA]",Menge des durch 1 CU-Einheit Humanplasmin pro Min. freigesetzten Spaltproduktes R-NH2 in Nanomol (Humanplasmin),Humanplasmin,408 Nanomol
same,Menge des durch 1 ml Humansputum pro Min. freigesetzten Spaltproduktes R-NH2 in Nanomol (Submandibularis-Kallikrein),[1],"28,5 Nanomol"
same,Menge des durch 1 ml Humanurin pro Min. freigesetzten Spaltproduktes R-NH2 in Nanomol (Urinkallikrein),Urinkallikrein,"2,42 Nanomol"
"NCCCC[C@H](NC(=O)[C@H](Cc1ccccc1)NC(=O)[C@H](N)C1CCCCC1)C(=O)Nc1ccc2ccccc2c1 [Beispiel 8, 2HBr.H-D-CHG-Phe-Lys-2-NA] (H-[dChg]-Phe-Lys-βNA)",Menge des durch 1 CU-Einheit Humanplasmin pro Min. freigesetzten Spaltproduktes R-NH2 in Nanomol (Humanplasmin),Humanplasmin,1180 Nanomol
same,Menge des durch 1 ml Humansputum pro Min. freigesetzten Spaltproduktes R-NH2 in Nanomol (Submandibularis-Kallikrein),[1],"17,6 Nanomol"
same,Menge des durch 1 ml Humanurin pro Min. freigesetzten Spaltproduktes R-NH2 in Nanomol (Urinkallikrein),Urinkallikrein,"0,58 Nanomol"
"CC(C)C[C@H](NC(=O)[C@H](N)C(C)C)C(=O)N[C@@H](CCCNC(=N)N)C(=O)Nc1ccc([N+](=O)[O-])cc1 [A, 2HCl.H-D-Val-Leu-Arg-pNA, reference compound] (H-[dV]-Leu-Arg-pNA)",Menge des durch 1 CU-Einheit Humanplasmin pro Min. freigesetzten Spaltproduktes R-NH2 in Nanomol (Humanplasmin),Humanplasmin,83 Nanomol
same,Menge des durch 1 ml Humansputum pro Min. freigesetzten Spaltproduktes R-NH2 in Nanomol (Submandibularis-Kallikrein),[1],"12,2 Nanomol"
same,Menge des durch 1 ml Humanurin pro Min. freigesetzten Spaltproduktes R-NH2 in Nanomol (Urinkallikrein),Urinkallikrein,"0,90 Nanomol"
"COc1cc(NC(=O)[C@H](CCCNC(=N)N)NC(=O)[C@H](CC2CCCCC2)NC(=O)[C@H](N)C(C)C)cc2ccccc12 [Beispiel 9, 2HBr.H-D-Val-CHA-Arg-4-MeO-2-NA]",Menge des durch 1 CU-Einheit Humanplasmin pro Min. freigesetzten Spaltproduktes R-NH2 in Nanomol (Humanplasmin),Humanplasmin,388 Nanomol
same,Menge des durch 1 ml Humansputum pro Min. freigesetzten Spaltproduktes R-NH2 in Nanomol (Submandibularis-Kallikrein),[1],"25,4 Nanomol"
same,Menge des durch 1 ml Humanurin pro Min. freigesetzten Spaltproduktes R-NH2 in Nanomol (Urinkallikrein),Urinkallikrein,"2,38 Nanomol"
"Cc1cc(=O)oc2cc(NC(=O)[C@H](CCCNC(=N)N)NC(=O)[C@H](CC3CCCCC3)NC(=O)[C@H](N)C(C)C)ccc12 [Beispiel 3, 2HBr.H-D-Val-CHA-Arg-MCA] (H-[dV]-[Cha]-Arg-{AMC})",Menge des durch 1 CU-Einheit Humanplasmin pro Min. freigesetzten Spaltproduktes R-NH2 in Nanomol (Humanplasmin),Humanplasmin,430 Nanomol
same,Menge des durch 1 ml Humansputum pro Min. freigesetzten Spaltproduktes R-NH2 in Nanomol (Submandibularis-Kallikrein),[1],"31,2 Nanomol"
same,Menge des durch 1 ml Humanurin pro Min. freigesetzten Spaltproduktes R-NH2 in Nanomol (Urinkallikrein),Urinkallikrein,"2,55 Nanomol"
